Assays:
[1] = system: C. albicans wild type PHO84/PHO84 and pho84/pho84 null cells; assay: Growth curves in liquid SC medium (OD600) during exposure to Pho84 inhibitors; type: cell-based, Candida albicans; details: wild type vs pho84−/− null; 1 and 4 mM PAA or 200 and 400 μM foscarnet; SC with 0.22 or 11 mM KH2PO4, 30° C.; FIG. 10A, B
Procedure: FIGS. 10A-10D depict data showing that Foscarnet inhibits Pho84 in competition with Pi. Wild type PHO84/PHO84 (+/+, dark blue) (JKC915) and pho84/pho84 null (−/−, light blue) (JKC1450) cells were exposed to 1 and 4 mM PAA (FIG. 10A) or 200 and 400 μM foscarnet (FIG. 10B), and growth in SC medium with 0.22 mM or 11 mM KH2PO4 at 30° C. was monitored automatically every 15 minutes. FIGS. 10A and 10B are representative of 3 biological replicates; error bars show SD. FIG. 10C depicts a filamentation assay: in order to maximize reproducibility between replicate experiments, cells of wild type strain SC5314 were suspended in 0.9% NaCl to an OD600 of 0.1; then 3 μl of the suspension was spotted at equidistant points, using a template, around a Spider agar plate containing vehicle or 500 μM foscarnet. Spot edges were imaged to show the length and density of filaments extending from the edge of the spot into the agar medium. Scale bar 1 mm. […] OD600 was monitored automatically every 15 minutes. […]
For cell dilutions spotted onto agar media as previously described (20), saturated overnight cultures were diluted in 5-fold steps from an OD600 of 0.5. […] For growth assays including those during drug exposure, OD600 readings were obtained every 15 min in a plate reader and standard deviations of 3 technical replicates were calculated and graphed in Graphpad Prism. […]

[2] = system: ROS content of wild type (SC5314) cells; assay: DCFDA detectable ROS measurement; type: cell-based, Candida albicans; details: wild type cells unexposed to external oxidative stressors; 500 microM foscarnet or 1 mM PAA, 1 hour; FIG. 20C
Procedure: FIGS. 20A-20D depict data showing that TORC1 activity contributes to ROS management and Sod3 expression. FIG. 20A depicts dichlorodihydrofluorescein diacetate (DCFDA) detectable ROS measurement of strains, (1) PHO84/PHO84 containing vector (JKC1594), (2) pho84/pho84 containing vector (JKC1598), (3) PHO84/PHO84 overexpressing GTR1 (JKC1596), (4) pho84/pho84 overexpressing GTR1 (JKC1600). Cells cultured overnight in YPD were diluted into SC medium (Loflo) with vehicle or 8 ng/ml rapamycin for 1 hour, and fluorescence intensity was determined at excitation-485 nm and emission wavelength 528 nm after staining cells with 50 μM DCFDA. p=0.0252 for ratio of pho84−/− with vector and pho84−/− overexpressing GTR1 versus ratio of wild type with vector and wild type overexpressing GTR1; all cells exposed to vehicle. p=0.0014 for ratio of pho84−/− with vector and pho84−/− overexpressing GTR1 versus ratio of wild type with vector and wild type overexpressing GTR1; all cells exposed to rapamycin. p values calculated using Student's t-test. […] In FIG. 20C, wild type (SC5314) cells were exposed to vehicle, 500 microM foscarnet or 1 mM PAA for 1 hour, and fluorescence intensity was determined at excitation-485 nm and emission wavelength 528 nm after staining cells with 50 μM DCFH-DA. p<0.001 for both 500 microM foscarnet versus vehicle and 1 mM PAA versus vehicle. […]

[3] = system: TORC1 (Rps6 phosphorylation); assay: Western blot for phosphorylated ribosomal protein S6 (P-S6) as readout of TORC1 activity; type: cell-based, Candida albicans; details: FIG. 4A
Procedure: (§1) FIGS. 4A-4D depict data showing that small-molecule inhibition of Pho84 represses TORC1 and hyphal morphogenesis, and potentiates amphotericin B and micafungin antifungal activity. FIG. 4A depicts a Western blot of wild type (wt) (SC5314) cells with (1) vehicle, (2) 100 μM foscarnet (Fos), (3) 200 μM Fos, (4) 400 μM Fos, and strains (5, 7, 9, 11) PHO84+/+(JKC915), (6, 8) pho84−/+ (JKC1583) and (10, 12) pho84−/− (JKC1450), grown in standard SC (7.3 mM Pi) for 60 min, probed for P-S6 and tubulin. FIG. 4B depicts Wt (SC5314) spotted at equidistant points around RPMI agar (0.22 mM KH2PO4, pH 7) containing vehicle, 8 mM phosphonoacetic acid (PAA), or 500 μM Fos, grown at 37° C., and spot edges imaged. Compare with FIG. 7A. Bar 1 mm. FIG. 4C depicts Wt (SC5314) exposed to vehicle, 500 μM Fos, 0.2 μg/ml amphotericin B, and amphotericin B plus Fos; OD600 in SC with 0.5 mM KH2PO4 at 30° C. monitored every 15 minutes. FIG. 4D depicts Wt (SC5314) exposed to vehicle, 500 μM Fos, 25 ng/ml micafungin, and micafungin plus Fos; OD600 in SC with 0.5 mM KH2PO4 at 30° C. monitored every 15 minutes.
Cell harvesting, lysis, Western blotting and densitometry were performed as described in Chowdhury T & Köhler JR (2015) Ribosomal protein S6 phosphorylation is controlled by TOR and modulated by PKA in Candida albicans. Molecular Microbiology 98(2):384-402. At least three biological replicates were obtained for each experiment shown.

[4] = system: C. albicans wild type (SC5314); assay: Potentiation of antifungals, growth curves (OD600) in SC with 0.5 mM KH2PO4; type: cell-based, Candida albicans; details: 500 μM Fos plus 0.2 μg/ml amphotericin B; 8 mM PAA plus 0.25 μg/ml amphotericin B; 30° C.; FIG. 4C, 10D
Procedure: as §1, with “FIG. 4B depicts Wt (SC5314) spotted at equidistant points around RPMI agar (0.22 mM KH2PO4, pH 7) containing vehicle, 8 mM phosphonoacetic acid (PAA), or 500 μM Fos, grown at 37° C., and spot edges imaged. Compare with FIG. 7A. Bar 1 mm.” left out
FIGS. 10A-10D depict data showing that Foscarnet inhibits Pho84 in competition with Pi. Wild type PHO84/PHO84 (+/+, dark blue) (JKC915) and pho84/pho84 null (−/−, light blue) (JKC1450) cells were exposed to 1 and 4 mM PAA (FIG. 10A) or 200 and 400 μM foscarnet (FIG. 10B), and growth in SC medium with 0.22 mM or 11 mM KH2PO4 at 30° C. was monitored automatically every 15 minutes. […] OD600 was monitored automatically every 15 minutes. […]

[5] = system: C. albicans wild type, pho84−/− null and reintegrant cells; assay: Growth in YPD with oxidative stressors (OD600); type: cell-based, Candida albicans; details: 25 μM plumbagin, 40 μM menadione, 40 mM H2O2, FIG. 16A
Procedure: FIGS. 16A and 16B depict data showing that resistance to oxidative stressors is decreased, and Hog1 phosphorylation is increased in cells lacking PHO84. In FIG. 16A, overnight cultures were washed with normal saline and diluted to YPD with vehicle, 25 μM plumbagin, 40 μM menadione, and 40 mM H2O2 to OD600 0.1. OD600 was monitored every 15 minutes for strains +/+ (PHO84/PHO84), JKC915; −/− (pho84/pho84), JKC1450 and −/−/+(pho84/pho84::PHO84), JKC1588. FIG. 16B depicts a Western blot of cells incubated in YPD containing 5 mM H2O2 for 5 min, 10 min, 20 min, 30 min and 40 min. The membrane was probed for P-Hog1, total Hog1, and loading controls PSTAIRE and Histone H3. Strains, +/+ (PHO84/PHO84), JKC915; −/− (pho84/pho84), JKC1450 and −/−/+ (pho84/pho84::PHO84), JKC1588. FIGS. 16A and 16B show representatives of at least 3 biological replicates.
For cell dilutions spotted onto agar media as previously described (20), saturated overnight cultures were diluted in 5-fold steps from an OD600 of 0.5. For growth curves in liquid media, saturated overnight cultures in YPD were washed once in 0.9% NaCl and diluted to an OD600 of 0.15 in 150 μl medium in flat bottom 96-well dishes. For growth assays including those during drug exposure, OD600 readings were obtained every 15 min in a plate reader and standard deviations of 3 technical replicates were calculated and graphed in Graphpad Prism. Growth during drug exposure was assayed in SC medium. Vehicle for Pho84 inhibitors PAA (Sigma, 284270) and Fos (Santa Cruz Biotechnology, # SC-253593A) was water and for amphotericin B (Sigma, A9528), DMSO. All panels shown represent at least 3 biological replicates.

[6] = system: human peripheral blood derived neutrophils incubated with C. albicans; type: cell-based; details: neutrophils pretreated with different concentrations of NAC (up to 10 mM); 90 min, M.O.I. 2; dose-dependent; FIG. 12D
Procedure: To examine whether in fact ROS are responsible for pho84−/− null cells' increased susceptibility to neutrophils' cidal activity, Candida-ingesting neutrophils were treated with the ROS-scavenging compound N-acetyl cysteine (NAC).

Compound | C. albicans growth inhibition in dependence on Pho84 [1] | ROS content (DCFDA detectable) [2] | Potentiation of amphotericin B antifungal activity [4] | Growth inhibition of pho84−/− null mutant compared with wild type [5] | also measured
O=C(O)P(=O)(O)O [Fos, phosphonoformic acid] | inhibit C. albicans growth in dependence on the presence of their target Pho84 | increased the ROS content of wild type cells | potentiate activity of the antifungal amphotericin B | – | Rps6 phosphorylation (P-S6) ([3]; heterozygous pho84−/+ cells (JKC1583)): P-S6 was hypersensitive to Fos; Rps6 phosphorylation (P-S6) ([3]; pho84−/− cells lacking the target (JKC1450)): did not further decrease the P-S6 signal; Rps6 phosphorylation (P-S6) ([3]; wild type (SC5314) cells, 100, 200, 400 μM Fos, SC (7.3 mM Pi), 60 min): inhibited Rps6 phosphorylation (PS6) in a dose-dependent manner
O=C(O)CP(=O)(O)O [PAA, phosphonoacetic acid] | inhibit C. albicans growth in dependence on the presence of their target Pho84 | increased the ROS content of wild type cells | potentiate activity of the antifungal amphotericin B | – | –
OO [H2O2, hydrogen peroxide] | – | – | – | inhibited growth of the mutant more strongly than that of the wild type | –
CC1=CC(=O)c2ccccc2C1=O [menadione] | – | – | – | inhibited growth of the mutant more strongly than that of the wild type | –
CC(=O)N[C@@H](CS)C(=O)O [NAC, N-acetyl cysteine] | – | – | – | – | Hypersensitivity of pho84−/− null cells to neutrophil killing [6]: rescued hypersensitivity of pho84−/− null cells to neutrophil killing
CC1=CC(=O)c2c(O)cccc2C1=O [plumbagin] | – | – | – | inhibited growth of the mutant more strongly than that of the wild type | –

Source: US20200061087A1, “Inhibiting the Fungal Cell-Surface Phospate Transporter PHO84” (Children's Medical Center Corporation, priority 2017, published 2020)
